We go through 75 compounds from ChEMBL document CHEMBL2094269, “WEHI/Eskitis Trypanosoma b. brucei screening data”.

By IC50 is commonly meant the concentration that gives 50% inhibition. A high value points to lower potency.

Series [1] is described as follows: DNDI: Cytotoxicity against human MRC-5 lung fibroblast cells. Conditions: IC50.
In series [2] the test system is Trypanosoma brucei brucei. Nature of the series: microbe, parasite or virus in culture. The format is functional, organism-based, STIB 795.
Description: DNDI: Inhibition of Human African Trypanosomiasis (HAT), STIB 795, in vitro

As to `CCN1C=Cc2ccccc2/C1=C\c1ccc2ccccc2[n+]1CC`, the half-maximal inhibitory concentration (IC50) in series [1] is over 4.17 µM; in series [2] (Trypanosoma brucei, STIB 795), 0.086 µM.
The like results for `COc1ccc(C(=O)O/N=C(\N)c2ccccc2Cl)cc1OC` were, in that order, over 20.8 µM and 0.686 µM.
Turning to `N=C(NOC(=O)N1CCOCC1)c1ccc(Br)cc1`, the IC50 in series [1] was over 20.8 µM; in series [2] (Trypanosoma brucei, STIB 795), 0.748 µM.
In the same order, the values of `CCCn1c(=O)c2c(nc3n2CCN3Cc2ccco2)n(C)c1=O` are over 41.7 µM and 4.91 µM.
The like results for `Cc1c(-c2cccc(NC(=O)c3cccs3)c2)nc2ncccn12` were, in that order, over 41.7 µM and 5.18 µM.
In the same order, the values of `CC(Nc1nc(N2CCNCC2)nc2ccccc12)c1ccccc1` (stereo not given) are over 4.17 µM and 1.47 µM.
Regarding `O=C(NCCc1csc(-c2cccc(F)c2)n1)c1cccs1`, the IC50 in series [1] is over 41.7 µM; in series [2] (Trypanosoma brucei, STIB 795), at most 0.043 µM.
Turning to `CC1CCC2C(=O)N(c3ccc(Cc4ccncc4)cc3)C(=O)C2C1` (stereo not given), the IC50 was over 41.7 µM in series [1]; 5.4 µM in series [2]; 5.32 µM in series [2] (Trypanosoma brucei, STIB 795).
Consider `c1ccc(Sc2cccc3ccccc23)c(CNC2=NCCN2)c1`, for which the IC50 in series [1] was over 20.8 µM; in series [2] (Trypanosoma brucei, STIB 795), 0.428 µM.
With `COc1ccc(CNCCc2c[nH]c3ccccc23)c(OC)c1C`, the IC50 in series [1] is over 20.8 µM; in series [2] (Trypanosoma brucei, STIB 795), 5.26 µM.
Consider `O=C(N/N=C(\c1ccccc1)c1ccccn1)c1ccccc1Cl`, for which the 50% inhibitory concentration (IC50) is over 4.17 µM in series [1] and 1.76 µM in series [2] (Trypanosoma brucei, STIB 795).
`COc1ccc(C2=NNc3cccc4c(OC)ccc2c34)cc1OC`: the IC50 was over 41.7 µM in series [1]; 5.38 µM in series [2]; 5.58 µM in series [2] (Trypanosoma brucei, STIB 795).
`Oc1c(Br)cc(CN2CCOCC2)c2cccnc12`: the IC50 in series [1] was over 20.8 µM; in series [2] (Trypanosoma brucei, STIB 795), 1.1 µM.
In the same order, the values of `COC(=O)c1cn(NC(=O)c2ccccn2)c(=O)c2ccccc12` are over 10.4 µM and 0.63 µM.
In the same order, the values of `CC(C)(C)c1ccc(Cn2c(=N)n(CCO)c3ccccc32)cc1` are over 41.7 µM and 4.96 µM.
In the same order, the values of `Cc1ccccc1OCCn1c(=N)n(CC(C)C)c2ccccc21` are over 20.8 µM and 5.64 µM.
For the compound `Cc1nnc(N/N=C/c2cc(Br)ccc2O)nc1O`, the IC50 in series [1] was determined as 3.41 µM; in series [2] (Trypanosoma brucei, STIB 795), 3 µM.
In the same order, the values of `CC(C)CC(=O)/C(=C/c1ccc(Cl)cc1Cl)n1cncn1` are over 20.8 µM and 2.27 µM.
The like results for `CC1(C)CC(=O)C/C(=N/NC(=O)c2cc3ccccc3cc2O)C1` were, in that order, over 41.7 µM and under 0.1 µM.
With `COc1cccc(NC(=O)CSc2cccc3cccnc23)c1`, the IC50 was over 41.7 µM in series [1] and 5.79 µM in series [2] (Trypanosoma brucei, STIB 795).
The like results for `N#Cc1ccc(-c2ccncc2)nc1SCCN1CCCCC1` were, in that order, over 41.7 µM and 7.34 µM.
In the same order, the values of `O=C(N/N=C/c1ccc(-c2ccccc2Cl)o1)c1ccccc1` are over 41.7 µM and under 0.004 µM.
Consider `O=C(N/N=C/c1ccc(Cl)cc1Cl)c1ccc(O)c(O)c1`, for which the half-inhibitory concentration (IC50) is over 20.8 µM in series [1] and 1.54 µM in series [2] (Trypanosoma brucei, STIB 795).
As for `CCn1nc(/C=C/c2ccccc2)[n+]([O-])c2c(=O)n(C)c(=O)nc1-2`, the IC50 in series [1] was over 20.8 µM; in series [2] (Trypanosoma brucei, STIB 795) it was 3.67 µM.
In the same order, the values of `CNCCC(Sc1ccc(C(F)(F)F)cc1)c1ccccc1` (stereo not given) are over 20.8 µM and 1.9 µM.
With `CN1/C(=C/C=C/c2ccc3ccccc3[n+]2C)C=Cc2ccccc21`, the IC50 in series [1] is over 10.4 µM; in series [2] (Trypanosoma brucei, STIB 795), 0.077 µM.
Consider `CC1CCC(C(C)C)C(OCC(O)CN2C(C)CCCC2C)C1` (stereo not given), for which the IC50 is over 20.8 µM in series [1] and 3.51 µM in series [2] (Trypanosoma brucei, STIB 795).
The like results for `CCOC(=O)N/N=C\c1ccc(-c2cccc(C(F)(F)F)c2)o1` were, in that order, over 41.7 µM and 3.19 µM.
For `O=c1cc(OC2=CS(=O)(=O)c3ccccc32)c2ccccc2o1`, the IC50 in series [1] was 5.99 µM; in series [2] (Trypanosoma brucei, STIB 795), 3.59 µM.
As to `O=C(COc1ccccc1)N/N=C/c1sc2ccccc2c1O`, the IC50 was over 20.8 µM in series [1] and 7.88 µM in series [2] (Trypanosoma brucei, STIB 795).
The like results for `c1ccc2c(OCCCCCCNCC3CCCO3)cccc2c1` (stereo not given) were, in that order, over 41.7 µM and 5.25 µM.
The like results for `CC(C)NC[C@]1(C)CCC[C@]2(C)c3ccc(C(C)C)cc3CC[C@@H]12` were, in that order, over 41.7 µM and 0.47 µM.
As for `O=C(N/N=C/c1sc2ccccc2c1O)c1ccc(O)cc1O`, the IC50 is over 4.17 µM in series [1] and 4.44 µM in series [2] (Trypanosoma brucei, STIB 795).
The like results for `NS(=O)(=O)c1ccc(/N=N/c2ccc(O)c3ncccc23)cc1` were, in that order, over 20.8 µM and 4.78 µM.
For the compound `CCN(CC)c1ccc(/C=N\NC(=O)Cc2cccn2C)c(O)c1`, the IC50 in series [1] is over 4.17 µM; in series [2] (Trypanosoma brucei, STIB 795), 3.62 µM.
With `Clc1cc2c(c3ncccc13)OCN(CCC1=CCCCC1)C2`, the 50% inhibitory concentration (IC50) was over 20.8 µM in series [1] and 1.05 µM in series [2] (Trypanosoma brucei, STIB 795).
Take `CC(C)(C)c1ccc(/C(=N\NC(=N)N)c2ccc(Cl)cc2)cc1`: the IC50 is over 20.8 µM in series [1] and 1.1 µM in series [2] (Trypanosoma brucei, STIB 795).
The like results for `O=C(O)c1ccc(NNc2c3ccccc3nc3ccccc23)cc1` were, in that order, over 41.7 µM and 1.02 µM.
The like results for `CC1(C)N=C(N)N=C(N)N1OCc1cccc(C2CCCCC2)c1` were, in that order, over 41.7 µM and 4.68 µM.
For the compound `O=C(c1ccc(Cl)cc1)C(CN1CCOCC1)c1ccccc1` (stereo not given), the IC50 in series [1] was over 20.8 µM; in series [2], 4 µM; in series [2] (Trypanosoma brucei, STIB 795), 3.11 µM.
Take `Cc1cc(C)c(C(=O)CC(N2CCCCC2)C(F)(F)F)c(=O)[nH]1` (stereo not given): the IC50 in series [1] is over 20.8 µM; in series [2] (Trypanosoma brucei, STIB 795), 2.27 µM.
The like results for `CCOC(=O)C/C(C)=N/Nc1ccc(-n2nc(C)c(C)c2C)nn1` were, in that order, over 10.4 µM and 2.16 µM.
`CC1(C)CC(=O)C(C2=C(Cl)C(=O)c3ccccc3C2=O)=C(O)C1`: the 50% inhibitory concentration (IC50) is over 41.7 µM in series [1]; 0.59 µM in series [2]; 0.642 µM in series [2] (Trypanosoma brucei, STIB 795).
Turning to `CC(=O)CC1(O)C(=O)Nc2ccc(I)cc21` (stereo not given), the half-maximal inhibitory concentration (IC50) in series [1] is over 41.7 µM; in series [2] (Trypanosoma brucei, STIB 795), 3.13 µM.
The like results for `Cc1cc(Cl)cc(Cl)c1OCCCCCN1CCNCC1` were, in that order, over 20.8 µM and 2.28 µM.
The like results for `Cn1c(Cc2ccccc2)nn(C2CC(=O)C3OCC2O3)c1=S` (stereo not given) were, in that order, over 41.7 µM and 4.91 µM.
The like results for `CC1CC(C)(C)Nc2ccc(OCc3cccc4ccccc34)cc21` (stereo not given) were, in that order, over 20.8 µM and 0.832 µM.
In the case of `CCOc1cc2c(cc1OCC)C(c1ccc(Cl)cc1)NCC2` (stereo not given), the IC50 in series [1] is over 20.8 µM; in series [2] (Trypanosoma brucei, STIB 795), 5.64 µM.
The like results for `CC(C)/C(N)=N/OC(=O)c1ccc(I)cc1` were, in that order, over 41.7 µM and 0.808 µM.
The like results for `O=C1NC(=S)NC(=O)C1=Cc1c2ccccc2cc2ccccc12` were, in that order, over 41.7 µM and 5.29 µM.
The like results for `Cc1cccc(-n2nnn(C3CC(=O)C4OCC3O4)c2=S)c1C` (stereo not given) were, in that order, over 41.7 µM and 5.25 µM.
Take `COc1ccc2c(C)cc(Sc3cccc4cccnc34)nc2c1`: the concentration for half-maximal inhibition (IC50) in series [1] was over 41.7 µM; in series [2] (Trypanosoma brucei, STIB 795) it was 5.58 µM.
As for `CC(C)(C)C1C/C(=C\c2cccnc2)C(=O)/C(=C/c2cccnc2)C1` (stereo not given), the IC50 was over 4.17 µM in series [1] and 0.098 µM in series [2] (Trypanosoma brucei, STIB 795).
For the compound `O=C(CCN1CCCCC1)Nc1ccc(OC(F)(F)Cl)cc1`, the concentration for half-maximal inhibition (IC50) in series [1] was over 41.7 µM; in series [2], 3.9 µM; in series [2] (Trypanosoma brucei, STIB 795), 4.27 µM.
Take `N/C(=N\OC(=O)C12CC3CC(CC(C3)C1)C2)c1ccccc1Cl`: the IC50 was over 41.7 µM in series [1] and 0.372 µM in series [2] (Trypanosoma brucei, STIB 795).
In the same order, the values of `O=c1c(Oc2ccccc2Br)coc2cc(O)ccc12` are over 41.7 µM and 4.46 µM.
`CCOc1cc(-n2ncc(Cl)c(Cl)c2=O)nc(SC)n1`: the IC50 was over 4.17 µM in series [1] and 1.51 µM in series [2] (Trypanosoma brucei, STIB 795).
`Cc1cc(/C=N/n2cnnc2)c(C)n1-c1cccc(C(F)(F)F)c1`: the IC50 is over 41.7 µM in series [1] and under 0.04 µM in series [2] (Trypanosoma brucei, STIB 795).
With `c1ccc2cc3c(NCCCNC4CCCCC4)ccnc3cc2c1`, the IC50 in series [1] turned out to be 4.93 µM; in series [2] (Trypanosoma brucei, STIB 795) it was 0.294 µM.
The like results for `COC(=O)C(NC(=O)c1c(Cl)sc2nnsc12)C(C)C` (stereo not given) were, in that order, over 4.17 µM and 4.12 µM.
In the same order, the values of `Cc1cc(OCC(O)CNC(C)c2ccccc2)cc(C)c1Cl` (stereo not given) are over 41.7 µM and 4.73 µM.
The like results for `Oc1c(C(Nc2nccs2)c2ccccn2)ccc2cccnc12` (stereo not given) were, in that order, 4.16 µM and 0.973 µM.
For `NCCCCNCCOC(c1ccc(F)cc1)c1ccc(F)cc1`, the IC50 in series [1] is over 20.8 µM; in series [2] (Trypanosoma brucei, STIB 795), 2.6 µM.
With `CC1CCN(Cc2cc(Br)c(O)c3ncccc23)CC1`, the IC50 in series [1] turned out to be 5.36 µM; in series [2] (Trypanosoma brucei, STIB 795) it was 1.63 µM.
The like results for `COc1ccc2c(-c3ccccc3)cc(NCCCN(C)C)nc2c1` were, in that order, over 20.8 µM and 3.67 µM.
Take `CN1CCN(Cc2cc(Br)c3cccnc3c2O)CC1`: the IC50 is over 4.17 µM in series [1] and 5.07 µM in series [2] (Trypanosoma brucei, STIB 795).
The like results for `CC(C)CC(=O)NC(=C(Cl)Cl)S(=O)(=O)c1ccccc1` were, in that order, over 4.17 µM and 5.33 µM.
In the same order, the values of `COc1ccc(C)cc1/N=N/c1ccc(O)c2nc(/C=N/O)ccc12` are over 20.8 µM and 2.37 µM.
For the compound `O=C(N/N=C/c1cc2c3c(c1O)CCCN3CCC2)c1ccncc1`, the IC50 in series [1] was over 0.42 µM; in series [2] (Trypanosoma brucei, STIB 795), 0.288 µM.
On to `c1ccc(COc2ccc(-c3cc(C4CCNCC4)[nH]n3)cc2)cc1`, for which the IC50 was over 10.4 µM in series [1] and 1.95 µM in series [2] (Trypanosoma brucei, STIB 795).
The like results for `CC(C)(C)c1ccc2c(c1)OCCOCCOCCOCCO2` were, in that order, over 20.8 µM and 5.26 µM.
The like results for `Cc1cccc2c1NC(=O)C2(c1ccc(O)cc1)c1ccc(O)cc1` were, in that order, over 20.8 µM and 5.72 µM.
With `CC(C)Nc1ccc(Nc2ccnc3cc4ccccc4cc23)cc1`, the IC50 is over 41.7 µM in series [1] and 2.58 µM in series [2] (Trypanosoma brucei, STIB 795).
In the same order, the values of `S=C(N/N=C(/c1ccccc1)c1ccccn1)Nc1ccccc1` are over 4.17 µM and 4.84 µM.
In the same order, the values of `Cc1ccc(C(OCC(C)(C)C[N+](C)(C)C)c2ccccc2)cc1` (stereo not given) are over 41.7 µM and 6.71 µM.
